The values below are quoted from earlier work in patent US20060198906A1, “Compositions and Method to Increase Serum Levels of HDL cholesterol and Lower the Risk of Cardiovascular Disease” (SAMI LABS LIMITED, priority 2005, published 2006).

For the data set the following is noted: dose range of 20-80 mg/day, clinical studies.

The structures appear in SMILES notation.

With `CC(C)c1nc(N(C)S(C)(=O)=O)nc(-c2ccc(F)cc2)c1/C=C/[C@@H](O)C[C@@H](O)CC(=O)O` [Rosuvastatin], the “reduction of LDL levels” value was “up to 65%”.
